Data on 30 molecules can be found in patent publication US20230174484A1, “ANTAGONISTS OF GPR39 PROTEIN” (Oregon Health & Science University, priority 2020, published 2023).

The target in the assay is T1, human GPR39 receptor (Homo sapiens, UniProt O43194).
T1 construct: PC3 Cells, Expressing the Endogenous Human GPR39 Receptor; endogenous in cells; host or cells: PC3 (human prostate adenocarcinoma) cells
T1 sequence (O43194 1-453): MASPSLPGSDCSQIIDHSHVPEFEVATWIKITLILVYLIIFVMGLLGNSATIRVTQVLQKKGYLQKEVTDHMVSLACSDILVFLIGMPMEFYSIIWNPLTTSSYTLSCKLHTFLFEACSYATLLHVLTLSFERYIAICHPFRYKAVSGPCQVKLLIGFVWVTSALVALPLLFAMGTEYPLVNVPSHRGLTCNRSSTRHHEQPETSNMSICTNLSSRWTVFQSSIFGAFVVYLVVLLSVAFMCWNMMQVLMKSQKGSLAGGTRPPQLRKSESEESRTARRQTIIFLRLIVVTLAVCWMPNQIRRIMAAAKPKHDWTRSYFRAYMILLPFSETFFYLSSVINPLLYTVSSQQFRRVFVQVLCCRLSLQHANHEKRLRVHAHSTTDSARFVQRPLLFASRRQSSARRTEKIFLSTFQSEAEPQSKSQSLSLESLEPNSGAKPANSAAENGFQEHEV
The experiment in a line: Measurement of intracellular calcium response in PC3 cells (FLIPR), antagonism of the C3 agonist response. The format is cell-based. To be noted: functional pKi (modified Cheng-Prusoff), inhibition of the C3 (TC-G 1008) response at EC90, 30 μM ZnCl2, read-out: fpKi activity. In outline: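 PC3 cells with endogenous human GPR39 were loaded with Calcium-6 and read by FLIPR, with compounds tested in buffer with 30 μM final ZnCl2 and 0.32% DMSO. Peak Ca2+ signal was scored as % inhibition of the EC90 C3 response, fitted by four-parameter logistic. Functional pKi was derived via the modified Cheng-Prusoff equation.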

Structures can show the parent of a compound that is named as a salt. A value given as a limit tells only on which side of the number the result lay.

As for `C[C@@H]1C[C@H](C)CN(c2cc(NC(=O)C3CC3)ccc2-c2ncc3n2CCN(C)C3)C1` [Example 104b, N-[3-(3,5-dimethylpiperidin-1-yl)-4-(7-methyl-6,8-dihydro-5H-imidazo[1,5-a]pyrazin-3-yl)phenyl] cyclopropanecarboxamide], the Ki lay in the range of 63.1 to 251 nM.
Regarding `CC1CC(C)CN(c2cc(NC(=O)C3CC3)ccc2C(=O)N2CCN(C)CC2c2ccccc2)C1` (single isomer, unassigned) [Example 68e, Anti N-[3-[3,5-dimethylpiperidin-1-yl]-4-(4-methyl-2-phenylpiperazine-1-carbonyl)phenyl]cyclopropanecarboxamide], the Ki was in the range of 63.1 to 251 nM.
Then `CN1CCn2c(cnc2-c2ccc(NC(=O)C3CC3)cc2N2CCCCCC2)C1` [Example 102, N-[3-(azepan-1-yl)-4-{7-methyl-5H,6H,7H,8H-imidazo[1,5-a]pyrazin-3-yl}phenyl]cyclopropanecarboxamide], with 63.1 to 251 nM; and `CN1CCN(C(=O)c2ccc(NC(=O)C3CC3)nc2N2CCCC2)C(c2ccccc2)C1` (single isomer, unassigned) [Example 149b, (2R or 2S) N-[5-(4-methyl-2-phenylpiperazine-1-carbonyl)-6-pyrrolidin-1-ylpyridin-2-yl] cyclopropanecarboxamide], with 1260 to 6310 nM.
On to `CN1CCN(C(=O)c2ccc(NC(=O)C3CC3)nc2N2CCCCC2)C(c2ccccc2)C1` (racemic) [Example 147, N-[5-(4-methyl-2-phenylpiperazine-1-carbonyl)-6-piperidin-1-ylpyridin-2-yl]cyclopropanecarboxamide], for which the Ki was in the range of 63.1 to 251 nM.
Turning to `CN1CCN(C(=O)c2ccc(NC(=O)C3CC3)cc2N2CCCC2)C(c2cncnc2)C1` (racemic) [Example 175, N-[4-(4-methyl-2-pyrimidin-5-ylpiperazine-1-carbonyl)-3-pyrrolidinylphenyl]cyclopropanecarboxamide], the Ki lay within 316 to 1000 nM.
Consider `CCCC1CCN(C(=O)c2ccc(NC(=O)C3CC3)cc2N2CCCCCC2)CC1` [Example 47, N-(3-(azepan-1-yl)-4-(4-propylpiperidine-1-carbonyl)phenyl)cyclopropanecarboxamide], for which the Ki was in the range of 63.1 to 251 nM.
To `O=C(Nc1ccc(C(=O)N2CCS(=O)(=O)CC2)c(N2CCCC(C(F)(F)F)C2)c1)C1CC1` (racemic) [Example 185c, N-[4-(1,1-dioxo-1,4-thiazinane-4-carbonyl)-3-[3-(trifluoromethyl)piperidin-1-yl]phenyl]cyclopropanecarboxamide] belongs 63.1 to 251 nM; to `O=C(Nc1ccc(C(=O)N2CCS(=O)(=O)CC2)c(N2CCCC3(CC3)C2)c1)C1CC1` [Example 189, N-[3-(5-azaspiro[2.5]octan-5-yl)-4-(1,1-dioxo-1,4-thiazinane-4-carbonyl)phenyl]cyclopropanecarboxamide], 63.1 to 251 nM; to `O=C(Nc1ccc(C(=O)N2CCC(C(F)(F)F)CC2)c(N2CCCC2)c1)C1CC1` [Example 61, N-[3-pyrrolidin-1-yl-4-[4-(trifluoromethyl)piperidine-1-carbonyl]phenyl]cyclopropanecarboxamide], 63.1 to 251 nM.
Then `O=C(Nc1ccc(C(=O)N2CCN(Cc3ccccc3F)CC2)c(N2CCCCCC2)c1)C1CC1` [Example 28, N-(3-(azepan-1-yl)-4-(4-(2-fluorobenzyl)piperazine-1-carbonyl)phenyl) Cyclopropanecarboxamide], with 63.1 to 251 nM; and `CCCN1CCN(C(=O)c2ccc(NC(C)=O)cc2N2CCCCCC2)CC1` [Example 95, N-(3-(azepan-1-yl)-4-(4-propylpiperazine-1-carbonyl)phenyl)acetamide], with 1260 to 6310 nM.
As to `CCCN1CCN(C(=O)c2ccc(NC(=O)C3CC3(F)F)cc2N2CCCCCC2)CC1` (stereo not drawn) [Example 92], the Ki was 316 to 1000 nM.
Turning to `O=C(Nc1ccc(C(=O)N2CCNCC2c2ccccc2F)c(N2CCCC2)c1)C1CC1` (racemic) [Example 157], the Ki is 1260 to 6310 nM.
For `CC1CCN(c2cc(NC(=O)C3CC3)ccc2C(=O)N2CCN(C)CC2c2ccccc2)C1` (single isomer, unassigned) [Example 64d, (2S, 3R) or (2R, 3S) or (2R, 3R) or (2S, 3S) N-[4-(4-methyl-2-phenylpiperazine-1-carbonyl)-3-(3-methylpyrrolidin-1-yl)phenyl] cyclopropanecarboxamide], the Ki lay within 316 to 1000 nM.
To `CN1CCN(C(=O)c2ccc(NC(=O)C3CC3)cc2N2CCCC2)C(c2ccccc2)C1` (racemic) [Example 62c, N-[4-(4-methyl-2-phenylpiperazine-1-carbonyl)-3-pyrrolidin-1-ylphenyl]Cyclopropanecarboxamide] belongs 63.1 to 251 nM.
To `CN1CCN(C(=O)c2ccc(-c3nnc(C4CC4)[nH]3)cc2N2CCCC2)C(c2ccccc2)C1` (single isomer, unassigned) [Example 151b, (2R or 2S) [4-(5-cyclopropyl-4H-1,2,4-triazol-3-yl)-2-pyrrolidin-1-ylphenyl]-(4-methyl-2-phenylpiperazin-1-yl)methanone] belongs 1260 to 6310 nM; to `O=C(Nc1ccc(C(=O)N2CCN(Cc3ncco3)CC2)c(N2CCCCCC2)c1)C1CC1` [Example 24, N-(3-(azepan-1-yl)-4-(4-(oxazol-2-ylmethyl)piperazine-1-carbonyl)phenyl) cyclopropanecarboxamide], 63.1 to 251 nM; to `Cn1c(-c2ccccc2)nnc1-c1ccc(NC(=O)C2CC2)cc1N1CCCCCC1` [Example 112, N-[3-(azepan-1-yl)-4-(4-methyl-5-phenyl-1,2,4-triazol-3-yl)phenyl]cyclopropanecarboxamide], 316 to 1000 nM.
Consider `CSc1nnc(-c2ccc(NC(=O)C3CC3)cc2N2CCCCCC2)n1C` [Example 109, N-[3-(azepan-1-yl)-4-(4-methyl-5-methylsulfanyl-1,2,4-triazol-3-yl)phenyl]Cyclopropanecarboxamide], for which the Ki was 1260 to 6310 nM.
Take `CNC(=O)N1CCN(C(=O)c2ccc(NC(=O)C3CC3)cc2N2CCCC2)C(c2ccccc2)C1` (stereo not drawn) [Example 217, 4-[4-(cyclopropanecarbonylamino)-2-pyrrolidin-1-ylbenzoyl]-N-methyl-3-phenylpiperazine-1-carboxamide]: the Ki lay in the range of 316 to 1000 nM.
Then `CS(=O)(=O)C1CCN(C(=O)c2ccc(NC(=O)C3CC3)cc2N2CCCC2)CC1` [Example 218, N-[4-(4-methylsulfonylpiperidine-1-carbonyl)-3-pyrrolidin-1-ylphenyl]cyclopropanecarboxamide], with 1260 to 6310 nM; and `CN1CCN(C(=O)c2ccc(NC(=O)C3CC3)nc2N2CCCC2)C(c2ccccc2)C1` (racemic) [Example 149c, N-[45-(4-methyl-2-phenylpiperazine-1-carbonyl)-6-pyrrolidin-1-ylpyridin-2-yl]cyclopropanecarboxamide], with 63.1 to 251 nM.
Then `CN1CCN(C(=O)c2ccc(NC(=O)C3CC3)cc2N2CCCCCC2)C(c2ccsc2)C1` (single isomer, unassigned) [Example 70a, N-(3-(azepan-1-yl)-4-(4-methyl-2-(thiophen-3-yl)piperazine-1-carbonyl)phenyl)cyclopropane carboxamide], with 1260 to 6310 nM; and `O=C(Nc1ccc(C(=O)N2CCC3(CC2)CC3)c(N2CCCC2)c1)C1CC1` [Example 220, N-[4-(6-azaspiro[2.5]octane-6-carbonyl)-3-pyrrolidin-1-ylphenyl]cyclopropanecarboxamide], with 63.1 to 251 nM.
As for `CC1CCN(c2cc(NC(=O)C3CC3)ccc2C(=O)N2CCC(C(F)(F)F)CC2)C1` (racemic) [Example 63c, N-[3-(3-methylpyrrolidin-1-yl)-4-[4-(trifluoromethyl)piperidine-1-carbonyl]phenyl]cyclopropanecarboxamide], the Ki was at most 50.1 nM.
Take `CN(C)C(=O)N1CCN(C(=O)c2ccc(NC(=O)C3CC3)cc2N2CCCC2)C(c2ccccc2)C1` (stereo not drawn) [Example 216, 4-[4-(cyclopropanecarbonylamino)-2-pyrrolidin-1-ylbenzoyl]-N,N-dimethyl-3-phenylpiperazine-1-carboxamide]: the Ki is 63.1 to 251 nM.
Regarding `CN1CCN(C(=O)c2ccc(NC(=O)C3CC3)cc2N2CCCC2)C(c2ccccc2)C1` (single isomer, unassigned) [Example 62d, 2R or 2S N-[4-(4-methyl-2-phenylpiperazine-1-carbonyl)-3-pyrrolidin-1-ylphenyl]cyclopropanecarboxamide hydrochloride], the Ki lay within 63.1 to 251 nM.
Then `Cc1nnc(-c2ccc(C(=O)N3CCN(C)CC3c3ccccc3)c(N3CCCC3)c2)[nH]1` (single isomer, unassigned) [Example 150b, (2R or 2S) (4-methyl-2-phenylpiperazin-1-yl)-[4-(5-methyl-4H-1,2,4-triazol-3-yl)-2-pyrrolidin-1-ylphenyl]methanone], with 1260 to 6310 nM.
Then `CC1CN(c2cc(NC(=O)C3CC3)ccc2C(=O)N2CCS(=O)(=O)CC2)CC(C)O1` (racemic) [Example 188, N-[3-[(anti)-2,6-dimethylmorpholin-4-yl]-4-(1,1-dioxo-1,4-thiazinane-4-carbonyl)phenyl]cyclopropanecarboxamide], with 1260 to 6310 nM.
